Measured values as given in PMC6300358, “Preacinetobactin not acinetobactin is essential for iron uptake by the BauA transporter of the pathogen Acinetobacter baumannii” (eLife, 2018).

Target: T1, BauA (Acinetobacter baumannii, UniProt Q76HJ9)
T1 construct: mature protein (signal peptide removed); residues 33 to 703 well defined in the apo structure
Assay: ITC (Kd […] at Fe3+:siderophore […]; […] at […]) and […] Å crystal structure
Format: binding

T1 sequence (Q76HJ9 entry or part of it): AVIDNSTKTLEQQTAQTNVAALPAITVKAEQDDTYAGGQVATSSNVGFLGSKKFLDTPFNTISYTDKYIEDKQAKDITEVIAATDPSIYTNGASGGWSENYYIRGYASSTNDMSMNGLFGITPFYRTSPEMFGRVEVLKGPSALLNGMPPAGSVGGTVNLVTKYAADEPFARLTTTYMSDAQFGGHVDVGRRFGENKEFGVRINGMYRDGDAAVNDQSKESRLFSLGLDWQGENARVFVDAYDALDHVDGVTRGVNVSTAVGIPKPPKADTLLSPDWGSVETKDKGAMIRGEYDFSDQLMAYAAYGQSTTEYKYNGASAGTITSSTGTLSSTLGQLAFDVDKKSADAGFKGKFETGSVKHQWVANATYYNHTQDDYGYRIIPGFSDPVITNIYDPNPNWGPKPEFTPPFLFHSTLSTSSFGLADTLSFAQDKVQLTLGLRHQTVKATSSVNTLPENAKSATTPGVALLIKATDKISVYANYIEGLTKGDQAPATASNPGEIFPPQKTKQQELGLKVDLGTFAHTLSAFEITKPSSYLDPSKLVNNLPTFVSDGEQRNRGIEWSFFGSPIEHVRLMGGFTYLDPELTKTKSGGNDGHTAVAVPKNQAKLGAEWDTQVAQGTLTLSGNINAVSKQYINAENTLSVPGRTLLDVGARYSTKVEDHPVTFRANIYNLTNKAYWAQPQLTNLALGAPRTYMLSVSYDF

SMILES: C[C@H]1OC(c2cccc(O)c2O)=N[C@@H]1C(=O)N(O)CCc1cnc[nH]1 [preacinetobactin]
- Kd: 83 nM
